Measurements taken from patent US20070009437A1, “Intracellular trapping of radionuclides by enzyme-mediated reduction” (priority 2003, published 2007).

Experiments:
[1] = tested on: T. vaginalis (ATCC No. 30001); assay: Trapping of Tc99m pertechnetate in Trichomonas vaginalis (intracellular radioactivity, gamma counter); format: cell-based; conditions: 2 μCi, 37° C., 2×10^6 cells per tube, washed pellet
Method: T. vaginalis (ATCC No. 30001) was cultured in ATCC LYI entamoeba medium (ATCC No. PRA-2154) at 37° C. in test tubes to a titer of 2×10^6 cells per tube. Three test tubes were included in each group. T. vaginalis cells were incubated at 37° C. for a period of time after inoculation of 2 μci of Technetium 99m pertechnetate in each test tube. At end of incubation, the cells were harvested by centrifugation at […], for 10 minutes. The cellular pellet was washed three times with PBS to remove extra-cellular radioactivity. Intracellular radioactivity of the cells was counted with a gamma counter.

[2] = tested on: DsbC-HydB fusion (pETDuet/DsbC-HydB alone) in E. coli BL21(DE3) Star; assay: Tc99m O4- reduction assay, bacteria with pETDuet/DsbC-HydB alone; format: cell-based, Desulfovibrio desulfuricans; conditions: for Counts Per Minute, cell pellet, FB: 15 mCi, aerobic
Text: (§1) Bacterial expression vectors were designed following standard molecular biology techniques. D. desulfuricans hydrogenase genes, Hyd A and Hyd B were PCR amplified using primers incorporated with unique restriction sites at the ends. The genes were inserted into pET-Duet1 (Novagen) vector under T7 RNA polymerase driven promoter through sequential restriction digestion and ligation. Periplasmic signal sequences were extracted from vectors pET-39b and pET-40b (Novagen) and ligated in-frame with start codon deficient Hydrogenase genes. Mammalian expression vectors were designed with mitochondrial signal sequences from pCMV/myc/mito, fused in frame by PCR amplification and ligation with both HydA and HydB genes. Additionally, the myc epitope was added in-frame at the C-terminus to facilitate subcellular localization and immunoprecipations.
(§2) E. coli BL21(DE3) Star (Invitrogen) was transformed with various constructs and grown on the appropriate selective media agars. In case of periplasmic fusion hydrogenases, dual co-transformation was accomplished using antibiotic selection markers, ampicillin and chloramphenicol. Transformed cells were grown at 37° C. in a standard laboratory shaker under aerobic conditions to an optical density at 600 nm (O.D.600) of 0.6 and then induced with 1 mM IPTG under a standard T7 promoter induction protocol. One ml aliquots of cells were collected at 0, 1, 2, and 3 hour time points following induction and mRNA was extracted using a bacterial mRNA extraction mini kit (Qiagen). 100 ng of the mRNA samples was DNAse treated (Invitrogen) according to the manufacturer's protocol. RNA quality was then analyzed using an Agilent 2100 Bioanalyzer, prokaryotic total RNA nano-chip. RT-PCR reactions were performed using the internal specific primers for HydA, Forward: 5′-[…] (SEQ ID NO:8); Reverse: 5′-[…] (SEQ ID NO:9) and Hyd B, Forward: 5′-[…] (SEQ ID NO:10), Reverse 5′-[…] (SEQ ID NO:11) and one step RT-PCR kit (Qiagen).
(§3) Tc99m O4—reduction assays were performed as follows: Bacterial cultures were grown to an O.D.600 of 0.6 in a simple rotary shaker under aerobic conditions. HydA and HydB genes were induced with 1 mM IPTG in the presence of 15 mCi of 99mTc Pertechnetate and ten ml aliquots of bacterial cultures were collected at 0, 1, 2, and 3 hr time points. The cells were spun down at 3500 rpm for 15 min, washed twice with 5 ml phosphate buffered saline (PBS) and the supernatant was collected and saved for later analysis. Control bacteria transformed with Duet vectors only were treated as controls. Total counts in the total cell pellet, 100 μl of media supernatant, and 1 ml of each wash, were then assayed using a gamma counter. Ten microliters of 99mTc pertechnetate was assayed to provide internal control between experiments.
(§4) In FIG. 12, the amount of radioactivity recorded in counts per minute was divided by the total number of counts expected per 10 ml of culture. The experimental values were determined by subtracting the control bacterial normalized CPM from the normalized CPM from the hydrogenase vector(s) transformed bacteria. The values obtained were therefore normalized counts per minute for the different cell lines.
(§5) However, this increase was negligible when compared to cells containing both HydA and HydB in separate (individual) Dsb fusion vector constructs.

[3] = tested on: D. desulfuricans hydrogenase HydA/HydB (pETDuet/HydA/HydB) in E. coli BL21(DE3) Star; assay: Tc99m O4- reduction assay, bacteria with pETDuet/HydA/HydB; format: cell-based, Desulfovibrio desulfuricans; conditions: for Counts Per Minute, cell pellet, HYDA/B: 15 mCi, aerobic
Text: as §1, §2, §3, §4

[4] = tested on: DsbA-HydA + DsbC-HydB (pACYC-DsbA-HydA + pETDuet/DsbC-HydB) in E. coli BL21(DE3) Star; assay: Tc99m O4- reduction assay, bacteria with both periplasmic Dsb fusion vectors; format: cell-based, Desulfovibrio desulfuricans; conditions: for Counts Per Minute, cell pellet, DSB FUSIONS: 15 mCi, aerobic
Text: as §1, §2, §3, §4, §5

[5] = tested on: E. coli BL21(DE3) Star transformed with pET-Duet + pACYCDuet (control); assay: Tc99m O4- reduction assay, control bacteria with Duet vectors only; format: cell-based, Escherichia coli; conditions: 15 mCi, aerobic
Method: as §2, §3, §4

[6] = tested on: DsbA-HydA fusion (pACYC-DsbA-HydA alone) in E. coli BL21(DE3) Star; assay: Tc99m O4- reduction assay, bacteria with pACYC-DsbA-HydA alone; format: cell-based, Desulfovibrio desulfuricans; conditions: 15 mCi, aerobic
Text: as §1, §2
Tc99m O4—reduction assays were performed as follows: Bacterial cultures were grown to an O.D.600 of 0.6 in a simple rotary shaker under aerobic conditions. HydA and HydB genes were induced with 1 mM IPTG in the presence of 15 mCi of 99mTc Pertechnetate and ten ml aliquots of bacterial cultures were collected at 0, 1, 2, and 3 hr time points. The cells were spun down at 3500 rpm for 15 min, washed twice with 5 ml phosphate buffered saline (PBS) and the supernatant was collected and saved for later analysis. […]
as §4, with “The values obtained were therefore normalized counts per minute for the different cell lines.” left out

## [O]=[99Tc](=[O])(=[O])[O-] [Technetium 99m pertechnetate]
[1]; incubation 30 minutes
  RADIOACTIVITY (dpm) in T. vaginalis: 24904 dpm
[1]; incubation 45 minutes
  RADIOACTIVITY (dpm) in T. vaginalis: 45127 dpm
[1]; incubation 12 hours
  RADIOACTIVITY (dpm) in T. vaginalis: 1915843 dpm
[2]; 0 hr after 1 mM IPTG induction
  Counts Per Minute, cell pellet, FB: 4643 cpm
[2]; 1 hr after 1 mM IPTG induction
  Counts Per Minute, cell pellet, FB: 40064 cpm
[2]; 2 hr after 1 mM IPTG induction
  Counts Per Minute, cell pellet, FB: 55201 cpm
[2]; 3 hr after 1 mM IPTG induction
  Counts Per Minute, cell pellet, FB: 77462 cpm
[2]; Hyd B-Dsb fusion alone vs both fusion hydrogenase products together
  entrapment of radionuclide by cells: higher than that of both fusion hydrogenase products together
[3]; 0 hr after 1 mM IPTG induction
  Counts Per Minute, cell pellet, HYDA/B: 2074 cpm
[3]; 1 hr after 1 mM IPTG induction
  Counts Per Minute, cell pellet, HYDA/B: 5543 cpm
[3]; 2 hr after 1 mM IPTG induction
  Counts Per Minute, cell pellet, HYDA/B: 8031 cpm
[3]; 3 hr after 1 mM IPTG induction
  Counts Per Minute, cell pellet, HYDA/B: 12339 cpm
[3]; bacteria overexpressing HydA and HydB genes
  trapping in vitro as compared to control cells: significantly higher trapping
[3]; pETDuet1/HydA/HydB vector vs pET-Duet+PAcYCDuet vector
  radioactivity within cells relative to control cells: noticeable increase in radioactivity
[4]; 0 hr after 1 mM IPTG induction
  Counts Per Minute, cell pellet, DSB FUSIONS: 4185 cpm
[4]; 1 hr after 1 mM IPTG induction
  Counts Per Minute, cell pellet, DSB FUSIONS: 38129 cpm
[4]; 2 hr after 1 mM IPTG induction
  Counts Per Minute, cell pellet, DSB FUSIONS: 80021 cpm
[4]; 3 hr after 1 mM IPTG induction
  Counts Per Minute, cell pellet, DSB FUSIONS: 56611 cpm
[4]; DsbA and DsbC ligated in fusion to Hyd A and Hyd B
  99mTc association with the bacteria: increased 99mTc association with the bacteria
[5]; 0 hr after 1 mM IPTG induction
  Counts Per Minute, cell pellet, D + P (control): 2777 cpm
[5]; 1 hr after 1 mM IPTG induction
  Counts Per Minute, cell pellet, D + P (control): 6939 cpm
[5]; 2 hr after 1 mM IPTG induction
  Counts Per Minute, cell pellet, D + P (control): 10045 cpm
[5]; 3 hr after 1 mM IPTG induction
  Counts Per Minute, cell pellet, D + P (control): 11944 cpm
[6]; 0 hr after 1 mM IPTG induction
  Counts Per Minute, cell pellet, FA: 7074 cpm
[6]; 1 hr after 1 mM IPTG induction
  Counts Per Minute, cell pellet, FA: 8503 cpm
[6]; 2 hr after 1 mM IPTG induction
  Counts Per Minute, cell pellet, FA: 15323 cpm
[6]; 3 hr after 1 mM IPTG induction
  Counts Per Minute, cell pellet, FA: 23935 cpm
